Measured values reported in patent publication US9770026B2, “Substituted pyrimidine compound and uses thereof” (Shenyang Sinochem Agrochemicals R&D Co., Ltd., priority 2012, dated 2017).

Tests used:
[1] = system: Green peach aphids (Myzus Persicae Sulzer); assay: bioactivity test against green peach aphid, airbrush foliar spray; type: in vivo; conditions: Myzus persicae, foliar, 48 h, contrastive test, read-out: Insecticidal activity against peach aphid (%); for pest or weed control at 600 µg/mL: 600 mg/L; for pest or weed control at 10 µg/mL: 10 mg/L; for pest or weed control at 100 µg/mL: 100 mg/L
Outline: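 Aphids (15-30 per cabbage leaf disc) on moist filter paper were airbrush-sprayed at 10 psi, 0.5 mL, with compound from acetone:methanol (1:1) diluted in water with 0.1% tween 80. Held at 25±1 C, 60±5% RH; survivors counted after 48 hrs to give death rates.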

[2] = system: armyworm; assay: bioactivity test against armyworm, airbrush spray; type: in vivo; conditions: 72 h, read-out: Insecticidal activity against armyworm (%); for pest or weed control at 600 µg/mL: 600 mg/L
[3] = system: Diamond back moth; assay: insecticidal activity against diamond back moth, airbrush spray; type: in vivo; conditions: 72 h, 600 mg/L
Outline: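 Airbrush leaf-disc spray test: both faces of 2 cm cabbage discs received 0.5 ml of test solution at 0.7 kg/cm^2. Solutions were made in acetone:methanol (1:1) and brought to concentration with 0.1% Tween 80 in water. Ten second-instar larvae per disc, triplicates, were held at 25° C and 60˜70% R.H., with mortality recorded at 72 hrs.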

[4] = system: cucumber gray mold; assay: fungicidal activity in vitro (inhibition rate) against cucumber gray mold; type: cell-based; conditions: 25 ppm, in vitro; read-out: inhibition rate against cucumber gray mold
[5] = system: corn rust; assay: protectant activity in vivo against corn rust; conditions: Zea mays, 168 h, protectant activity; for pest or weed control at 6.25 µg/mL: read-out: control effect against corn rust (%), 6.25 mg/L; for pest or weed control at 25 µg/mL: read-out: control effect against corn rust (%), 25 mg/L; for pest or weed control at 100 µg/mL: read-out: control effect against corn rust (%), 100 mg/L; for pest or weed control at 400 µg/mL: read-out: control effect against corn rust (%), 400 mg/L
[6] = system: cucumber downy mildew; assay: protectant activity in vivo against cucumber downy mildew; conditions: Cucumis sativus, 168 h, protectant activity; for pest or weed control at 25 µg/mL: read-out: control effect against cucumber downy mildew (%), 25 mg/L; for pest or weed control at 50 µg/mL: read-out: control effect against cucumber downy mildew (%), 50 mg/L; for pest or weed control at 100 µg/mL: read-out: control effect against cucumber downy mildew (%), 100 mg/L; for pest or weed control at 400 µg/mL: read-out: control effect against cucumber downy mildew (%), 400 mg/L
[7] = system: wheat powdery mildew; assay: protectant activity in vivo against wheat powdery mildew; conditions: Triticum aestivum, 168 h, protectant activity; for pest or weed control at 100 µg/mL: read-out: control effect against wheat powdery mildew (%), 100 mg/L; for pest or weed control at 400 µg/mL: read-out: control effect against wheat powdery mildew (%), 400 mg/L
[8] = system: carmine spider mite; assay: bioactivity test against carmine spider mite, airbrush spray; type: in vivo; conditions: for pest or weed control at 10 µg/mL / pest or weed control at 100 µg/mL / pest or weed control at 600 µg/mL: Tetranychus cinnabarinus, 72 h, contrastive test, read-out: Insecticidal activity against carmine spider mite (% ); for pest or weed control at 10 µg/mL: 10 mg/L; for pest or weed control at 100 µg/mL: 100 mg/L; for pest or weed control at 600 µg/mL: 600 mg/L
Outline: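 Broadbean seedlings infested with adult mites were sprayed with compound (acetone/methanol stock diluted in 0.1% Tween 80 water) by airbrush at 0.7 kg/cm^2, 0.5 ml. Three replicates were run. Mortality was scored after 72 hrs.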

[9] = system: rice blast; assay: microbe, parasite or virus in culture; type: cell-based; conditions: Pyricularia oryzae, read-out: inhibition rate against rice blast, 25 ppm, in vitro

In the case of Cc1ncnc(NCc2ccc(Oc3ccc(C(F)(F)F)cn3)cc2)c1Cl [CK22, reference compound], the pest or weed control at 600 µg/mL [1] was 0%, the pest or weed control at 600 µg/mL [2] was 0% and the pest or weed control at 600 µg/mL [3] was 0%. For the same compound, the inhibition at 25 ppm [4] was 0%, the pest or weed control at 6.25 µg/mL [5] was 0% and the pest or weed control at 25 µg/mL [5] was 40%. It also gave a pest or weed control at 100 µg/mL [5] of 100%, a pest or weed control at 400 µg/mL [5] of 100% and a pest or weed control at 25 µg/mL [6] of 60%. The pest or weed control at 50 µg/mL [6] was 75%, the pest or weed control at 100 µg/mL [6] was 98% and the pest or weed control at 400 µg/mL [6] was 100%. For the same compound, the pest or weed control at 6.25 µg/mL ([7]; read-out: control effect against wheat powdery mildew (%), 6.25 mg/L) was 0%, the pest or weed control at 25 µg/mL ([7]; read-out: control effect against wheat powdery mildew (%), 25 mg/L) was 50% and the pest or weed control at 100 µg/mL [7] was 90%. It also gave a pest or weed control at 400 µg/mL [7] of 100%.

For CC(Cl)c1ncnc(NCCc2ccc(Oc3ccc(C(F)(F)F)cn3)cc2)c1Cl (stereo not drawn) [CK24, reference compound], the pest or weed control at 2.5 µg/mL ([1]; 2.5 mg/L) was 0%, the pest or weed control at 5 µg/mL ([1]; 5 mg/L) was 28% and the pest or weed control at 10 µg/mL [1] was 89%. It also gave a pest or weed control at 100 µg/mL [1] of 100%, a pest or weed control at 600 µg/mL [1] of 100% and a pest or weed control at 10 µg/mL ([2]; 10 mg/L) of 0%. For the same compound, the inhibition at 25 ppm [4] was < 50%, the “Insecticidal activity against carmine spider mite (% )” value ([8]; 2.5 mg/L) was 5% and the “Insecticidal activity against carmine spider mite (% )” value ([8]; 5 mg/L) was 15%. For the same compound, the pest or weed control at 10 µg/mL [8] was 85%, the pest or weed control at 100 µg/mL [8] was 100% and the pest or weed control at 600 µg/mL [8] was 100%. It also gave a pest or weed control at 6.25 µg/mL [5] of 0%, a pest or weed control at 25 µg/mL [5] of 20% and a pest or weed control at 100 µg/mL [5] of 50%. For the same compound, the pest or weed control at 400 µg/mL [5] was 100%, the pest or weed control at 100 µg/mL [7] was 0% and the pest or weed control at 400 µg/mL [7] was 0%.

With Cc1ncnc(NCc2ccc(Oc3ncc(Cl)cc3Cl)cc2)c1Cl [CK37, reference compound] the pest or weed control at 10 µg/mL [1] was 0%, the pest or weed control at 100 µg/mL [1] was 16% and the pest or weed control at 600 µg/mL [1] was 100%. It also gave a pest or weed control at 600 µg/mL [2] of 0%, a pest or weed control at 600 µg/mL [3] of 0% and a pest or weed control at 600 µg/mL [8] of 0%. The inhibition at 25 ppm [9] was < 50%, the pest or weed control at 400 µg/mL [5] was 0% and the pest or weed control at 25 µg/mL [6] was 0%. The pest or weed control at 50 µg/mL [6] was 10%, the pest or weed control at 100 µg/mL [6] was 20% and the pest or weed control at 400 µg/mL [6] was 100%. It also gave a pest or weed control at 400 µg/mL [7] of 0%.

CC(Cl)c1ncnc(NCc2ccc(Oc3ccc(C(F)(F)F)cn3)cc2)c1Cl (stereo not drawn) [CK43, reference compound] showed a pest or weed control at 600 µg/mL [1] of 0%, a pest or weed control at 600 µg/mL [2] of 0% and a pest or weed control at 600 µg/mL [3] of 0%. It also gave a pest or weed control at 10 µg/mL [8] of 16%, a pest or weed control at 100 µg/mL [8] of 29% and a pest or weed control at 600 µg/mL [8] of 74%. For the same compound, the inhibition at 25 ppm [9] was < 50%, the pest or weed control at 400 µg/mL [5] was 85% and the pest or weed control at 25 µg/mL [6] was 0%. It also gave a pest or weed control at 50 µg/mL [6] of 20%, a pest or weed control at 100 µg/mL [6] of 40% and a pest or weed control at 400 µg/mL [6] of 100%. The pest or weed control at 400 µg/mL [7] was 20%.
